Data published in patent publication US7786120B2, “Pyridones useful as inhibitors of kinases” (Vertex Pharmaceuticals Incorporated, priority 2005, dated 2010).

What was measured:
Type in all cases: biochemical
[1] = target: T1, human Itk kinase (Homo sapiens, UniProt Q08881); experiment: Itk Inhibition Assay (radioactivity-based or spectrophotometric); details: inhibition of human Itk kinase
T1 sequence (Q08881 1-620): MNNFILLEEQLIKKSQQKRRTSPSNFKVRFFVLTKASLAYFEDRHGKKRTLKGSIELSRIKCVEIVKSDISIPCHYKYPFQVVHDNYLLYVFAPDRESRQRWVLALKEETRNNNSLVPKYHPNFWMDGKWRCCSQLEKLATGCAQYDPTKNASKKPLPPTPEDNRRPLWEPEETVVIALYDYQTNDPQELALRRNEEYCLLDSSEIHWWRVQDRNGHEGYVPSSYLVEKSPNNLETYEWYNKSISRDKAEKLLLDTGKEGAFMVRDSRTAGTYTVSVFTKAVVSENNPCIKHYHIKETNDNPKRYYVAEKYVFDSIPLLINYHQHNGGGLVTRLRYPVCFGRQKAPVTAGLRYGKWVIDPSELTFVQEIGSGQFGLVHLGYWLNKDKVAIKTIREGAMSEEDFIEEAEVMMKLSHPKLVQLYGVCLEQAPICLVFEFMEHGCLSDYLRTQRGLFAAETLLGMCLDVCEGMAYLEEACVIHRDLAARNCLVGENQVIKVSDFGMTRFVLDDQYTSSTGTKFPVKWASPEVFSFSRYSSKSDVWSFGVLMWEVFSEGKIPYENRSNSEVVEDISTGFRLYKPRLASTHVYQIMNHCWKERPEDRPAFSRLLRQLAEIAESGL
Description: The compounds of the present invention can be evaluated as inhibitors of human Itk kinase using either a radioactivity-based or a spectrophotometric assay. In general, compounds of the invention, including compounds in Table 1, are effective for the inhibition of Itk. Specifically, compounds I.1 to I.5 and compound I.7 have a Ki value of <1 μM and compounds I.6 and I.8 have a Ki value of >1 μM.
Assays were carried out in a mixture of 100 mM HEPES (pH 7.5), 10 mM MgCl2, 25 mM NaCl, 0.01% BSA and 1 mM DTT. Final substrate concentrations were 15 μM [γ-^33P]ATP (400 μCi ^33P ATP/μmol ATP, Amersham Pharmacia Biotech/Sigma Chemicals) and 2 μM peptide (SAM68 protein Δ332-443). Assays were carried out at 25° C. in the presence of 30 nM Itk. An assay stock buffer solution was prepared containing all of the reagents listed above, with the exception of ATP and the test compound of interest. 50 μL of the stock solution was placed in a 96 well plate followed by addition of 1.5 μL of DMSO stock containing serial dilutions of the test compound (typically starting from a final concentration of 15 μM with 2-fold serial dilutions) in duplicate (final DMSO concentration 1.5%). The plate was pre-incubated for 10 minutes at 25° C. and the reaction initiated by addition of 50 μL [γ-^33P]ATP (final concentration 15 μM).
The reaction was stopped after 10 minutes by the addition of 50 μL of a TCA/ATP mixture (20% TCA, 0.4 mM ATP). A Unifilter GF/C 96 well plate (Perkin Elmer Life Sciences, Cat no. 6005174) was pretreated with 5 μL Milli Q water prior to the addition of the entire reaction mixture (150 μL). […]
IC50 data were calculated from non-linear regression analysis of the initial rate data using the Prism software package (GraphPad Prism version 3.0cx for Macintosh, GraphPad Software, San Diego, Calif., USA). […]
Ki(app) data were calculated from non-linear regression analysis of the initial rate data using the Prism software package (GraphPad Prism version 3.0cx for Macintosh, GraphPad Software, San Diego, Calif., USA). […]

[2] = target: JAK2 (Homo sapiens, UniProt O60674); experiment: JAK2 kinase inhibition (assays similar to the ones described)
Description: (§1) Compound I.9 was tested in assays similar to the ones described herein and found to inhibit FLT-3, JAK2, and JAK3 kinases.

[3] = target: T2, JAK3 (Homo sapiens, UniProt P52333); experiment: JAK3 kinase inhibition (assays similar to the ones described)
T2 sequence (P52333 1-1124): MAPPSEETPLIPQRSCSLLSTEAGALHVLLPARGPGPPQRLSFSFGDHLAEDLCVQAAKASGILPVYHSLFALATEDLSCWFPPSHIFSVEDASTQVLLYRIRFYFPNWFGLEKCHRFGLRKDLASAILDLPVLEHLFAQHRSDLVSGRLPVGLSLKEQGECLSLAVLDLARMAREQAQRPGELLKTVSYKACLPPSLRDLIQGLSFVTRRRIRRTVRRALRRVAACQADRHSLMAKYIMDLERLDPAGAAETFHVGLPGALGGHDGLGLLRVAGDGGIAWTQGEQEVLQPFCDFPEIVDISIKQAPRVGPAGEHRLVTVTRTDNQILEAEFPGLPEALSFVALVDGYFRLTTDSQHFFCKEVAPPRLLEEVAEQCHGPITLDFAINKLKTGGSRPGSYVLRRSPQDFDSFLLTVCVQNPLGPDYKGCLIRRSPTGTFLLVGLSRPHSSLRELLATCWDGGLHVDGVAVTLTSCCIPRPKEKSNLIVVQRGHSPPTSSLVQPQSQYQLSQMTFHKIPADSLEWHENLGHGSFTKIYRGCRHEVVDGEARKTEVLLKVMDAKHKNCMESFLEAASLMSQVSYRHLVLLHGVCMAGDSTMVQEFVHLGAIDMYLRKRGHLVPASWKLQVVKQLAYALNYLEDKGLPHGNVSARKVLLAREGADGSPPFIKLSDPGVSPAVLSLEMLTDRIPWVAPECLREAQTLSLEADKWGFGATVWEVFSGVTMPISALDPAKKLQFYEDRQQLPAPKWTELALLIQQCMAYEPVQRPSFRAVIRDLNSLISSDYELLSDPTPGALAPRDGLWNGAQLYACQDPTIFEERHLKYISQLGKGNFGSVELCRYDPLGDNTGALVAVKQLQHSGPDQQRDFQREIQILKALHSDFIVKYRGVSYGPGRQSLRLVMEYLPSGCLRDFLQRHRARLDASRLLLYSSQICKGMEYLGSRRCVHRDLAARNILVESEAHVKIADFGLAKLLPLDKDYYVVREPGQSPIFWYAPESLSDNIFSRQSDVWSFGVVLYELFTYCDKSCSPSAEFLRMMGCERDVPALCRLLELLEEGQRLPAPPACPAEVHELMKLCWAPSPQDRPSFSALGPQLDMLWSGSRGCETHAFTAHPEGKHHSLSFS
Description: as §1

[4] = target: T3, FLT-3 (Homo sapiens, UniProt P36888); experiment: FLT-3 kinase inhibition (assays similar to the ones described)
T3 sequence (P36888 27-993): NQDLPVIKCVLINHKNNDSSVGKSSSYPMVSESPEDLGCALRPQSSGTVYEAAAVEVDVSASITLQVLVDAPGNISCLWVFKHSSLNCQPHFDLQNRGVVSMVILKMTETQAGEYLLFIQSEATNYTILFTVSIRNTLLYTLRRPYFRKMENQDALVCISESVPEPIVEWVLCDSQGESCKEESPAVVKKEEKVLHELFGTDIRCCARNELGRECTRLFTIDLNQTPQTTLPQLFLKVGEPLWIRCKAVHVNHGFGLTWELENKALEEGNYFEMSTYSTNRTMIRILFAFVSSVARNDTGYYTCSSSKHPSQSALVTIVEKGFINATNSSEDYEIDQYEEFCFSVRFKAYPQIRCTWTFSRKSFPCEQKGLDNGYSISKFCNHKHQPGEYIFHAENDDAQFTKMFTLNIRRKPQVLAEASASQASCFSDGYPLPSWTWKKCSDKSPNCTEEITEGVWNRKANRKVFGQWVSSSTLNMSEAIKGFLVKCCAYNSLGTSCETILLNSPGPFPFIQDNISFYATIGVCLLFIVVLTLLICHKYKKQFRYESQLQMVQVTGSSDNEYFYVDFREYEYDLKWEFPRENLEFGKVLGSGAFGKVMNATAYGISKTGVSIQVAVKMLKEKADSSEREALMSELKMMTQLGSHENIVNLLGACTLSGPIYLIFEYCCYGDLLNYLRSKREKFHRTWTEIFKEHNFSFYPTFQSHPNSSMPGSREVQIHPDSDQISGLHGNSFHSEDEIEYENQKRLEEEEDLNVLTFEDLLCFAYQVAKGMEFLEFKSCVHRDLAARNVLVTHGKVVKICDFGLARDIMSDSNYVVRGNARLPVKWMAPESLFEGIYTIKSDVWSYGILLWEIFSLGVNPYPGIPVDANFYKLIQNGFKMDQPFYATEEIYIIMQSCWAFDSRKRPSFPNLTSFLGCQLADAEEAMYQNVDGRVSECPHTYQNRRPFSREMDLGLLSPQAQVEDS
Description: as §1

JAK2, sequence (O60674 whole entry, species assumed): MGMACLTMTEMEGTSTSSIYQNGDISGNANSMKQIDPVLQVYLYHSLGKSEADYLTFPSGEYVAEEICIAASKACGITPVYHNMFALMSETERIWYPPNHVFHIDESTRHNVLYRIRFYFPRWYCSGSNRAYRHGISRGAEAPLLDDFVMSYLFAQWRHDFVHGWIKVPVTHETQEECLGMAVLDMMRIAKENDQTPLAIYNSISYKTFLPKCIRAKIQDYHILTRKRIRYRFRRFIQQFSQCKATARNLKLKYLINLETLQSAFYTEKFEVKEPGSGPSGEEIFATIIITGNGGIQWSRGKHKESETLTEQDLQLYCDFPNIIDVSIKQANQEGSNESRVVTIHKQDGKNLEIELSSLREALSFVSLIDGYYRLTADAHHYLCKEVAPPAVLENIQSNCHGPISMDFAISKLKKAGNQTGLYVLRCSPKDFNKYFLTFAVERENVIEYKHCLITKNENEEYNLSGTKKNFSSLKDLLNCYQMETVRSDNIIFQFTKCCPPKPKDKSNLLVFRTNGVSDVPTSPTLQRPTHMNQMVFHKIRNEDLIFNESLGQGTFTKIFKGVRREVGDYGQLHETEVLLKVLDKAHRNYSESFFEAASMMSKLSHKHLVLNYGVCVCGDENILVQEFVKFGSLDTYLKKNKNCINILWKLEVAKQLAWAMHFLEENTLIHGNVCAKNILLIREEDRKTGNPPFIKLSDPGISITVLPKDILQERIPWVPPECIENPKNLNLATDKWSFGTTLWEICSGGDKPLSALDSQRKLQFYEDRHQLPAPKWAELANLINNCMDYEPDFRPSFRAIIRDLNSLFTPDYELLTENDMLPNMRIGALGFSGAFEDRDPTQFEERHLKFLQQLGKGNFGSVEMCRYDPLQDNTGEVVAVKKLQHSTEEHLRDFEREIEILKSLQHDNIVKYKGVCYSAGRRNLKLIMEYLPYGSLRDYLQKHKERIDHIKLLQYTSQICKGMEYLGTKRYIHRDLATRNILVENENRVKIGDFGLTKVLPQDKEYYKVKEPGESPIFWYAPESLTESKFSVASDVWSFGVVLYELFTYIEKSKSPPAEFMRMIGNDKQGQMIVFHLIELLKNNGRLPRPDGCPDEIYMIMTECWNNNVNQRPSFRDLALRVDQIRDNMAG

| Compound | Ki [1] | inhibition of JAK2 kinase (in words) [2] | inhibition of JAK3 kinase (in words) [3] | inhibition of FLT-3 kinase (in words) [4] |
| --- | --- | --- | --- | --- |
| CNc1cncc(-c2c[nH]c(=O)c(/C=C3\C(=O)Nc4ccccc43)c2)n1 [I.6, 3-((1,2-dihydro-5-(6-(methylamino)pyrazin-2-yl)-2-oxopyridin-3-yl)methylene)indolin-2-one] | > 1000 nM | – | – | – |
| CNc1cncc(-c2c[nH]c(=O)c(/C=C/c3cc(CN4CCN(S(C)(=O)=O)CC4)ccc3[N+](=O)[O-])c2)n1 [I.7] | < 1000 nM | – | – | – |
| CNc1cncc(-c2c[nH]c(=O)c(/C=C/c3cc(OC)ccc3[N+](=O)[O-])c2)n1 [I.8] | > 1000 nM | – | – | – |
| O=c1[nH]cc(-c2ccccc2Cl)cc1/C=C/c1cnc2ccccn12 [I.9] | – | inhibit | inhibit | inhibit |
